Reference: publication PMC9486541, “Design, synthesis and cytotoxic evaluation of novel betulonic acid-diazine derivatives as potential antitumor agents” (Frontiers in Chemistry, 2022)

Legend:
MDCK cells = assay: DAPI staining of nuclear changes, MDCK; assay type: cell-based, canine; settings: MDCK cells, 2, 4, 8 μM
MCF-7 cells = assay: Cellular metabolomics study (LC-MS); assay type: cell-based, human; settings: MCF-7, BoA2C (2 μM) 72 h, BoA2C and Control groups
Procedure: To eliminate excess medium, cells were washed twice with 1 ml of PBS solution. The wells were then filled with 2 ml of ACN: MeOH: H2O 50:30:20 (v/v) and placed in the freezer for 20 min. The extracts obtained in an Eppendorf tube after the cells were scraped and vortexed. The mixture was then centrifuged for 10 min at 10,000 rpm and 4°C, and the supernatant was collected and dried with an evaporator. 300 μl MeOH was used for reconstitution. 15 μL of the reconstituted extract was mixed with 15 μl H2O and […] ACN for the metabolomics analysis of the intracellular material. After centrifugation (10 min, 4°C, 11,800 g), the supernatant was transferred to an LC-MS vial for analysis.
An Acquity UPLC HSS T3 column (1.8 μm 100 × 2.1 mm) using an UltiMate 3000 high performance LC system coupled to Q Exactive MS was used for metabolic profiling ([Shu et al., 2020]). At a flow rate of 0.3 ml/min, mobile phase A (water containing 0.1% acid) and mobile phase B (methanol) were used. A was reduced from 80 % to 70% from 0 to 2 min, A was reduced to 55% from 2 to 5 min, A was reduced to 40% from 5 to 6.5 min, A was reduced to 35% from 6.5 to 12 min, A was last reduced to 0 from 12 to 18 min. The gradient of the mobile phase was as follows: The column oven temperature was set to 40°C, and the autosampler temperature was set to 4°C. The injection volume was 1 μl. MS used electron spray ionization to operate in both positive and negative ionization modes (ESI). To assess the stability and repeatability of the LC-MS-based metabolomics method, quality control (QC) samples were used. Each QC sample was made by combining five samples of the same volume (100 μL) in the order of analysis. To ensure the system method’s stable operation, all combined QC samples for running all QC samples made by every five samples before analysis. After five samples were tested during the analysis run, the combined QC samples of the five samples were taken.
Mass spectrometry data of metabolites in MCF-7 cells was used for metabolomics investigation after co-cultivation with BoA2C (2 μM) for 72 h. The effectiveness of the OPLS-DA model to distinguish between the BoA2C and Control groups was assessed using the success criterion of R^2 ≥ 0.7 and Q^2 ≥ 0.4 ([Martin-Blazquez et al., 2019]). […] VIP-plots were investigated using the OPLS-DA models to examine important factors that led to the differentiation of the metabolome between the BoA2C and Control groups. Variables having a VIP value greater than 1 were deemed significant contenders. Matching retention time and MS fragmentation patterns from the MetaboAnalyst (version 5.0) database verified the presence of distinct metabolites ([Pang et al., 2021]). These metabolites were further categorized based on their characteristics, including amino acids, amines, aliphatic acids and bile acids. All differential metabolites were loaded into MetaboAnalyst (version 5.0) for metabolic analysis to further explain the fundamental mechanisms of BoA2C’s cytotoxic impact on breast carcinoma cells. In accordance with the described guidelines, the Homo sapiens pathway library and Fisher’s exact test were used for route enrichment analysis, while relative-betweeness centrality was used for pathway topology analysis ([Pang et al., 2021]). The impacted metabolic pathways were defined as those with a pathway effect value more than 0.10 and a p value less than 0.05. […] Six of them (Figure 7B, Table 3) were primarily involved: 1) arginine and proline metabolism 2) linoleate metabolism 3) bile acid biosynthesis 4) de novo fatty acid biosynthesis 5) fatty acid activation, and (VI) fatty Acid Metabolism.

[1] = Arginine and Proline Metabolism
[2] = De novo fatty acid biosynthesis

## C=C(C)[C@@H]1CC[C@]2(C(=O)OCCOC(=O)c3cnc(C)cn3)CC[C@]3(C)[C@H](CC[C@@H]4[C@@]5(C)CCC(=O)C(C)(C)[C@@H]5CC[C@]43C)[C@@H]12 [BoA2C, (5-Methylpyrazin-2-acyloxy)-ethyl-3-oxolup-20(29)-en-28-oate]
MDCK cells
  nuclear damage (DAPI staining): did not show a significant nuclear damage
MCF-7 cells; [1]
  fold change of 4-Acetamidobutanoic acid (M4): 2.37
  fold change of 5′-Methylthioadenosine (M10): 28.55
  fold change of L-4-Hydroxyglutamate semialdehyde (M6): 1.99
  fold change of L-Arginine (M14): 1.90
  fold change of L-Glutamic acid (M18): 1.94
  fold change of L-Glutamine (M7): 2.33
  fold change of L-Methionine (M12): 3.63
  fold change of L-Proline (M5): 2.40
MCF-7 cells; Bile acid biosynthesis
  fold change of 3,7-Dihydroxycoprostanic Acid (M21): 1027.39
  fold change of 3a,7a-Dihydroxy-5b-cholestan-26-al (M13): 241.46
  fold change of 3 alpha,7 alpha,26-Trihydroxy-5beta-cholestane (M3): 362.98
  fold change of 7a,12a-Dihydroxy-cholestene-3-one (M16): 17.04
  fold change of 7a-Hydroxy-5b-cholestan-3-one (M25): 9.40
  fold change of 7a-Hydroxy-cholestene-3-one (M28): 4.47
  fold change of 7alpha-Hydroxycholesterol (M17): 92.35
  fold change of 27-Deoxy-5b-cyprinol (M24): 2.03
  fold change of Cholesterol (M1): 7.69
  fold change of Cholic acid (M2): 2.55
  fold change of Lithocholic acid (M27): 108.49
MCF-7 cells; [2]
  fold change of Palmitic acid (M11): 23.17
  fold change of alpha-Linolenic acid (M26): 2.19
MCF-7 cells; Fatty Acid Metabolism
  fold change of 2-trans-dodecenoyl-CoA (M22): 1.93
  fold change of 3-Oxotetradecanoyl-CoA (M15): 1.77
MCF-7 cells; Linoleate metabolism
  fold change of 13-HODE (M23): 108.54
  fold change of 13-Hpode (M9): 23.04
  fold change of Ascorbic Acid (M19): 2.88
  fold change of Linoleic acid (M20): 159.58
  fold change of LysoPC(P-18:0/0:0) (M8): 3.29
